Earlier results as cited in PMC8395767, “Worsening of the Toxic Effects of (±)Cis-4,4′-DMAR Following Its Co-Administration with (±)Trans-4,4′-DMAR: Neuro-Behavioural, Physiological, Immunohistochemical and Metabolic Studies in Mice” (International Journal of Molecular Sciences, 2021).

How the values were obtained:
serotonin transporters = test system: serotonin transporters; set-up: method as in PMID 30776375, PMID 25331619, PMID 29908239; details: in vitro; cited from earlier work
DAT/SERT = test system: DAT/SERT; set-up: method as in PMID 30776375; details: cited from earlier work
5-HT2C = biological target: 5-HT2C; set-up: method as in PMID 29908239; details: read-out: Ki at 5-HT2C receptor; cited from earlier work
[1] = test system: noradrenaline (NET) transporter; set-up: method as in PMID 30776375, PMID 25331619, PMID 29908239; details: in vitro; cited from earlier work
rat brain synaptosomes = test system: rat brain synaptosomes; set-up: method as in PMID 24841869; details: compared with d-amphetamine, aminorex and 4-MAR; cited from earlier work
5-HT2A = biological target: 5-HT2A; set-up: method as in PMID 29908239; details: read-out: Ki at 5-HT2A receptor; cited from earlier work
[2] = test system: dopamine (DAT) transporter; set-up: method as in PMID 30776375, PMID 25331619, PMID 29908239; details: in vitro; cited from earlier work

In the case of `Cc1ccc(C2OC(N)=NC2C)cc1` (stereo not shown) [4,4′-DMAR, 4-Methyl-5-(4-methylphenyl)-4,5-dihydrooxazol-2-amine], the “Inhibitory activity on serotonin transporters” value (serotonin transporters) is given as “potent inhibitory activity”, the DAT/SERT ratio (DAT/SERT) is given as 0.4 and the Ki (5-HT2C) is given as roughly 11 µM. For the same compound, the “Inhibitory activity on noradrenaline transporter (NET)” value [1] was “potent inhibitory activity”, the “Release of 5-HT from rat brain synaptosomes” value (rat brain synaptosomes) was “most potent releaser” and the Ki (5-HT2A) was roughly 8.9 µM. The “Inhibitory activity on dopamine transporter (DAT)” value [2] was “potent inhibitory activity”.
